We go through four compounds from patent publication US4876266A, “1-aralkyl-2-mercaptoimidazolines as DBH inhibitors” (SmithKline Beckman Corporation, priority 1987, dated 1989).

Each structure is given as a SMILES string.

Test [1] addresses T1, dopamine-β-hydroxylase (DBH) (Bos taurus, UniProt P15101).
T1 sequence (P15101 1-610): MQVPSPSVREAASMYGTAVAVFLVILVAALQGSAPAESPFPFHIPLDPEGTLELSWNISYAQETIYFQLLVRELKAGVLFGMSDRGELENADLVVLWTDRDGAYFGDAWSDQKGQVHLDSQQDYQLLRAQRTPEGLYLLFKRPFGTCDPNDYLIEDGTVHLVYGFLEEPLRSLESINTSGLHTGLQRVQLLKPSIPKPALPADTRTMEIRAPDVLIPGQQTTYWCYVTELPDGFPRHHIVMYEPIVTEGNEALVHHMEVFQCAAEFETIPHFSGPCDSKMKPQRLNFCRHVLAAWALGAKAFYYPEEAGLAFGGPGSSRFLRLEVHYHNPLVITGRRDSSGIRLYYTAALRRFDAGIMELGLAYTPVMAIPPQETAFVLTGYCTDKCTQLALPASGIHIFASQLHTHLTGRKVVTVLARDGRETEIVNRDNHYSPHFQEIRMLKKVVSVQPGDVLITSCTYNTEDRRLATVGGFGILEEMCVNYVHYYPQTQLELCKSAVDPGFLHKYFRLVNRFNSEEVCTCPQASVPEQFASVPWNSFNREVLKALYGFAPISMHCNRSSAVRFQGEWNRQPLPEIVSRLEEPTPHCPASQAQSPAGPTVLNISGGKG
Nature of the test: in vitro DBH inhibition, conversion of tyramine to octopamine in the presence of DBH, spectrophotometric absorbance at 330 nm. The test is classed as biochemical. The settings on record: concentration of compound at which DBH activity was halved. The protocol:
Listed in Table III are the compounds of the invention that were tested for in vitro DBH inhibition by a standard procedure for assaying conversion of tyramine to octopamine in the presence of DBH. J. J. Pisano, et al., Biochim. Biophys. Acta, 43, 566-568 (1960). Octopamine was assayed following sodium periodate oxidation to p-hydroxybenzaldehyde by measuring spectrophotometric absorbance at 330 nm.

Test [2] deals with spontaneously hypertensive rats. Briefly: mean arterial blood pressure in spontaneously hypertensive rats, indwelling cannulae in the tail arteries. It counts as in vivo, rat. Particulars: 50 mg/kg orally; within approximately. The protocol:
Further, spontaneously hypertensive rats were treated with a suspension or solution of 1-(3,5-difluorobenzyl)-2-mercaptoimidazoline at a dose of 50 mg/kg orally and mean arterial blood pressure was monitored for 260 minutes using indwelling cannulae in the tail arteries. […] Maximum blood pressure reduction was approximately 15 to 20 mm Hg.

Test [3] deals with DBH. Particulars: significance of the observation is uncertain; cited from earlier work.

For `Fc1cc(F)cc(CN2CCN=C2S)c1` [1-(3,5-Difluorobenzyl)-2-mercaptoimidazoline], in test [1], the IC50 – broadly, the midpoint of a concentration-inhibition curve – was determined as 1.2 µM. Further, in test [2], the “time after treatment to significant blood pressure reductions” value was no more than 30 min. Consider `S=C1NCCN1Cc1ccccc1` [1-Benzyl-2-mercaptoimidazoline], for which, in test [1], the half-maximal inhibitory concentration (IC50) came out at 10 µM. Consider `CC(N)(Cc1ccc(O)c(O)c1)C(=O)O` (stereo not drawn) [alpha-methyl-DOPA], for which the “DBH levels in treated patients” value in test [3] is “lowered DBH levels”. Regarding `COC(=O)[C@H]1[C@H]2C[C@@H]3c4[nH]c5cc(OC)ccc5c4CCN3C[C@H]2C[C@@H](OC(=O)c2cc(OC)c(OC)c(OC)c2)[C@@H]1OC` [reserpine], the “DBH levels in treated patients” value in test [3] is “lowered DBH levels”.
